Target: T1, PIP4K2C (Homo sapiens, UniProt Q8TBX8)
T1 sequence (Q8TBX8 1-421): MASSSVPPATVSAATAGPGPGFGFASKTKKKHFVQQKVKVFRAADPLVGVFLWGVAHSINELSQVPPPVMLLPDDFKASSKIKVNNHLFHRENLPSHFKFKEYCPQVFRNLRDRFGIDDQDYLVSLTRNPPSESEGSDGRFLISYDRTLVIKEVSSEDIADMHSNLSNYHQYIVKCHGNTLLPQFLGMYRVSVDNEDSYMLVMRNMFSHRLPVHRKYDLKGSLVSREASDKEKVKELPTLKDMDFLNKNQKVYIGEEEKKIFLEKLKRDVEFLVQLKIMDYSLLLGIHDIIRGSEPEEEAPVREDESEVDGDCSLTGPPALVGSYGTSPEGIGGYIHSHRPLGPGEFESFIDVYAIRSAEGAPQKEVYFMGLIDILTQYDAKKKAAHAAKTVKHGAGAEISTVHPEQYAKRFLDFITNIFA
Test: HiBiT PIP4K2C degradation assay in MOLT-4 cells (endogenous PIP4K2C C-terminally tagged with HiBiT)
Format: cell-based
Set-up: untagged in primary human PBMCs and monocyte-derived dendritic cells
Conditions: 6 hours of incubation time, rather than 24 hours; MOLT-4, top concentration 10 micromolar; read-out: HiBIT-degradation MOLT4 PIP4k2C DC50 (6 hours, marked *)
Procedure, shortened: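 DC50 derived by Hill fit of luminescence from Nano-Glo HiBiT lytic detection. Cells were HiBiT knock-in MOLT-4 (C-terminal tag on endogenous PIP4K2C), exposed 6 h or 24 h at 37 C to compound, top concentration 10 micromolar, 3-fold steps, 10 points, duplicates.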

Structure (SMILES)	DC50 [nM]
O=C1CCC(Nc2ccc(N3CCN([C@H]4CC[C@H](C(=O)N[C@H]5CC[C@H](Nc6ncc(F)c(-c7cccc(N8CCOC8=O)c7)n6)CC5)CC4)CC3)c(F)c2)C(=O)N1 (stereo partly drawn) [Compound 411, trans-(1r,4R)-4-(4-(4-((2,6-dioxopiperidin-3-yl)amino)-2-fluorophenyl)piperazin-1-yl)-N-((1r,4R)-4-((5-fluoro-4-(3-(2-oxooxazolidin-3-yl)phenyl)pyrimidin-2-yl)amino)cyclohexyl)cyclohexane-1-carboxamide]	> 5000
O=C1CCC(Nc2ccc(N3CCN(CC4CCN(C(=O)[C@H]5CC[C@H](Nc6ncc(F)c(-c7cccc(N8CCCOC8=O)c7)n6)CC5)CC4)CC3)c(F)c2)C(=O)N1 (stereo partly drawn) [Compound 426, trans-3-[3-fluoro-4-[4-[[1-[4-[[5-fluoro-4-[3-(2-oxo-1,3-oxazinan-3-yl)phenyl]pyrimidin-2-yl]amino]cyclohexanecarbonyl]-4-piperidyl]methyl]piperazin-1-yl]anilino]piperidine-2,6-dione]	< 500
O=C1CCC(Nc2ccc(C3CCN(CC4CCN(C(=O)[C@H]5CC[C@H](Nc6ncc(F)c(-c7cccc(N8CCCOC8=O)c7)n6)CC5)CC4)CC3)c(F)c2)C(=O)N1 (stereo partly drawn) [Compound 427, trans-3-((3-fluoro-4-(1-((1-(4-((5-fluoro-4-(3-(2-oxo-1,3-oxazinan-3-yl)phenyl)pyrimidin-2-yl)amino)cyclohexane-1-carbonyl)piperidin-4-yl)methyl)piperidin-4-yl)phenyl)amino)piperidine-2,6-dione]	< 500
O=C1CCC(Nc2ccc(N3CCC(CN4CCN(C(=O)[C@H]5CC[C@H](Nc6ncc(F)c(-c7cccc(N8CCCOC8=O)c7)n6)CC5)CC4)CC3)c(F)c2)C(=O)N1 (stereo partly drawn) [Compound 428, trans-3-((3-fluoro-4-(4-((4-(4-((5-fluoro-4-(3-(2-oxo-1,3-oxazinan-3-yl)phenyl)pyrimidin-2-yl)amino)cyclohexane-1-carbonyl)piperazin-1-yl)methyl)piperidin-1-yl)phenyl)amino)piperidine-2,6-dione]	< 500
O=C1CCC(Nc2ccc(N3CCC(N4CCC(C(=O)N[C@H]5CC[C@H](Nc6ncc(F)c(-c7cccc(-c8ccc[nH]c8=O)c7)n6)CC5)CC4)CC3)c(F)c2)C(=O)N1 (stereo partly drawn) [Compound 429, trans-1′-(4-((2,6-dioxopiperidin-3-yl)amino)-2-fluorophenyl)-N-(4-((5-fluoro-4-(3-(2-oxo-1,2-dihydropyridin-3-yl)phenyl)pyrimidin-2-yl)amino)cyclohexyl)-[1,4′-bipiperidine]-4-carboxamide]	< 500
O=C1CCC(Nc2ccc(N3CCC(CN4CCN(C(=O)[C@H]5CC[C@H](Nc6ncc(F)c(-c7cccc(-c8ccc[nH]c8=O)c7)n6)CC5)CC4)CC3)c(F)c2)C(=O)N1 (stereo partly drawn) [Compound 430, 3-((3-fluoro-4-(4-((4-(trans-4-((5-fluoro-4-(3-(2-oxo-1,2-dihydropyridin-3-yl)phenyl)pyrimidin-2-yl)amino)cyclohexane-1-carbonyl)piperazin-1-yl)methyl)piperidin-1-yl)phenyl)amino)piperidine-2,6-dione]	< 500
O=C1CCC(Nc2ccc(N3CCC(N4CCC(NC(=O)[C@H]5CC[C@H](Nc6ncc(F)c(-c7cccc(-n8ccccc8=O)c7)n6)CC5)CC4)C(F)(F)C3)c(F)c2)C(=O)N1 (stereo partly drawn) [Compound 431, trans-N-(1′-(4-((2,6-dioxopiperidin-3-yl)amino)-2-fluorophenyl)-3′,3′-difluoro-[1,4′-bipiperidin]-4-yl)-4-((5-fluoro-4-(3-(2-oxopyridin-1(2H)-yl)phenyl)pyrimidin-2-yl)amino)cyclohexane-1-carboxamide]	< 500
O=C1CCC(Nc2ccc(C3CCN(C4CCC(NC(=O)C5CCC(Nc6ncc(F)c(-c7cccc(-c8ccc[nH]c8=O)c7)n6)CC5)CC4)CC3)c(F)c2)C(=O)N1 [Compound 435, trans-(1r,4R)—N-((1S,4R)-4-(4-(4-(((S)-2,6-dioxopiperidin-3-yl)amino)-2-fluorophenyl)piperidin-1-yl)cyclohexyl)-4-((5-fluoro-4-(3-(2-oxo-1,2-dihydropyridin-3-yl)phenyl)pyrimidin-2-yl)amino)cyclohexane-1-carboxamide]	< 500

Continued, values first:

DC50 [nM]	Structure (SMILES)
< 500	O=C1CCC(Nc2ccc(C3CCN(CC4(O)CCN(C(=O)[C@H]5CC[C@H](Nc6ncc(F)c(-c7cccc(-n8ccccc8=O)c7)n6)CC5)CC4)CC3)c(F)c2)C(=O)N1 (stereo partly drawn) [Compound 409, trans-3-((3-fluoro-4-(1-((1-(-4-((5-fluoro-4-(3-(2-oxopyridin-1(2H)-yl)phenyl)pyrimidin-2-yl)amino)cyclohexane-1-carbonyl)-4-hydroxypiperidin-4-yl)methyl)piperidin-4-yl)phenyl)amino)piperidine-2,6-dione]
< 500	O=C1CCC(Nc2ccc(N3CCC(O)(CN4CCN(C(=O)[C@H]5CC[C@H](Nc6ncc(F)c(-c7cccc(-n8ccccc8=O)c7)n6)CC5)CC4)CC3)c(F)c2)C(=O)N1 (stereo partly drawn) [Compound 410, trans-3-((3-fluoro-4-(4-((4-(4-((5-fluoro-4-(3-(2-oxopyridin-1(2H)-yl)phenyl)pyrimidin-2-yl)amino)cyclohexane-1-carbonyl)piperazin-1-yl)methyl)-4-hydroxypiperidin-1-yl)phenyl)amino)piperidine-2,6-dione]
< 500	O=C1CC[C@@H](Nc2ccc(N3CCN([C@H]4CC[C@H](C(=O)N[C@H]5CC[C@H](Nc6ncc(F)c(-c7cccc(N8CCCCC8=O)c7)n6)CC5)CC4)CC3)c(F)c2)C(=O)N1 [Compound 412, trans-(1r,4R)-4-(4-(4-((2,6-dioxopiperidin-3-yl)amino)-2-fluorophenyl)piperazin-1-yl)-N-((1r,4R)-4-((5-fluoro-4-(3-(2-oxopiperidin-1-yl)phenyl)pyrimidin-2-yl)amino)cyclohexyl)cyclohexane-1-carboxamide]
< 500	O=C1CCC(Nc2ccc(N3CCC(OC4CCN(C(=O)[C@H]5CC[C@H](Nc6ncc(F)c(-c7cccc(N8CCCCC8=O)c7)n6)CC5)CC4)CC3)c(F)c2)C(=O)N1 (stereo partly drawn) [Compound 413, trans-3-((3-fluoro-4-(4-((1-(4-((5-fluoro-4-(3-(2-oxopiperidin-1-yl)phenyl)pyrimidin-2-yl)amino)cyclohexane-1-carbonyl)piperidin-4-yl)oxy)piperidin-1-yl)phenyl)amino)piperidine-2,6-dione]
< 500	O=C1CCC(Nc2ccc(N3CCC(CC4CCN(C(=O)[C@H]5CC[C@H](Nc6ncc(F)c(-c7cccc(N8CCCCC8=O)c7)n6)CC5)CC4)CC3)c(F)c2)C(=O)N1 (stereo partly drawn) [Compound 414, trans-3-((3-fluoro-4-(4-((1-(-4-((5-fluoro-4-(3-(2-oxopiperidin-1-yl)phenyl)pyrimidin-2-yl)amino)cyclohexane-1-carbonyl)piperidin-4-yl)methyl)piperidin-1-yl)phenyl)amino)piperidine-2,6-dione]
< 500	O=C1CCC(Nc2ccc(N3CCC(CN4CCN(C(=O)[C@H]5CC[C@H](Nc6ncc(F)c(-c7cccc(N8CCCCC8=O)c7)n6)CC5)CC4)CC3)c(F)c2)C(=O)N1 (stereo partly drawn) [Compound 415, trans-3-((3-fluoro-4-(4-((4-(4-((5-fluoro-4-(3-(2-oxopiperidin-1-yl)phenyl)pyrimidin-2-yl)amino)cyclohexane-1-carbonyl)piperazin-1-yl)methyl)piperidin-1-yl)phenyl)amino)piperidine-2,6-dione]
< 500	O=C1CCC(Nc2ccc(N3CCN(C[C@H]4CC[C@H](CNC(=O)[C@H]5CC[C@H](Nc6ncc(F)c(-c7cccc(-n8ccccc8=O)c7)n6)CC5)CC4)CC3)c(F)c2)C(=O)N1 (stereo partly drawn) [Compound 416, trans-N-((trans-4-((4-(4-((2,6-dioxopiperidin-3-yl)amino)-2-fluorophenyl)piperazin-1-yl)methyl)cyclohexyl)methyl)-4-((5-fluoro-4-(3-(2-oxopyridin-1(2H)-yl)phenyl)pyrimidin-2-yl)amino)cyclohexane-1-carboxamide]
< 500	Cn1nc(C2CCC(=O)NC2=O)c2ccc(N3CCN(CC4CCN(C(=O)[C@H]5CC[C@H](Nc6ncc(F)c(-c7cccc(-c8ccc[nH]c8=O)c7)n6)CC5)CC4)CC3)cc21 (stereo partly drawn) [Compound 417, 3-(6-(4-((1-(trans-4-((5-fluoro-4-(3-(2-oxo-1,2-dihydropyridin-3-yl)phenyl)pyrimidin-2-yl)amino)cyclohexane-1-carbonyl)piperidin-4-yl)methyl)piperazin-1-yl)-1-methyl-1H-indazol-3-yl)piperidine-2,6-dione]
< 500	O=C1CCC(Nc2ccc(N3CCN([C@H]4CC[C@H](C(=O)N[C@H]5CC[C@H](Nc6ncc(F)c(-c7cccc(N8CCCOC8=O)c7)n6)CC5)CC4)CC3)c(F)c2)C(=O)N1 (stereo partly drawn) [Compound 424, trans-(1r,4R)-4-(4-(4-((2,6-dioxopiperidin-3-yl)amino)-2-fluorophenyl)piperazin-1-yl)-N-((1r,4R)-4-((5-fluoro-4-(3-(2-oxo-1,3-oxazinan-3-yl)phenyl)pyrimidin-2-yl)amino)cyclohexyl)cyclohexane-1-carboxamide]
< 500	O=C1CCC(Nc2ccc(N3CCC(CC4CCN(C(=O)[C@H]5CC[C@H](Nc6ncc(F)c(-c7cccc(N8CCCOC8=O)c7)n6)CC5)CC4)CC3)c(F)c2)C(=O)N1 (stereo partly drawn) [Compound 425, trans-3-((3-fluoro-4-(4-((1-(-4-((5-fluoro-4-(3-(2-oxo-1,3-oxazinan-3-yl)phenyl)pyrimidin-2-yl)amino)cyclohexane-1-carbonyl)piperidin-4-yl)methyl)piperidin-1-yl)phenyl)amino)piperidine-2,6-dione]

From patent publication US20260355196A1, “INHIBITORS AND DEGRADERS OF PIP4K PROTEIN” (Larkspur Biosciences, Inc., priority 2023, published 2026)
